Data: patent US7247641B2, “Compounds, derivatives, compositions, preparation and uses” (MGI GP, Inc., priority 2001, dated 2007)
pIC50: −log10 of the molar value. Read-outs that look alike come from different tables or passages of the source.

Experiments:
[1] = target: T1, purified recombinant human PARP (Homo sapiens, UniProt P09874); assay: PARP enzyme assay, [3H]NAD incorporation, IC50; assay type: biochemical
T1 construct: purchased Trevigan (Gaithersburg, Md.)
Procedure: The reaction is initiated by incubating the mixture at 25° C. After 15 minutes of incubation, the reaction is terminated by adding 500 microliters of ice cold 20% (w/v) trichloroacetic acid. The precipitate formed is transferred onto a glass fiber filter (Packard Unifilter-GF/B) and washed three times with ethanol. After the filter is dried, the radioactivity is determined by scintillation counting.

[2] = approximate values, PARP enzyme assay, read-out: IC50

T1 sequence (P09874 whole entry): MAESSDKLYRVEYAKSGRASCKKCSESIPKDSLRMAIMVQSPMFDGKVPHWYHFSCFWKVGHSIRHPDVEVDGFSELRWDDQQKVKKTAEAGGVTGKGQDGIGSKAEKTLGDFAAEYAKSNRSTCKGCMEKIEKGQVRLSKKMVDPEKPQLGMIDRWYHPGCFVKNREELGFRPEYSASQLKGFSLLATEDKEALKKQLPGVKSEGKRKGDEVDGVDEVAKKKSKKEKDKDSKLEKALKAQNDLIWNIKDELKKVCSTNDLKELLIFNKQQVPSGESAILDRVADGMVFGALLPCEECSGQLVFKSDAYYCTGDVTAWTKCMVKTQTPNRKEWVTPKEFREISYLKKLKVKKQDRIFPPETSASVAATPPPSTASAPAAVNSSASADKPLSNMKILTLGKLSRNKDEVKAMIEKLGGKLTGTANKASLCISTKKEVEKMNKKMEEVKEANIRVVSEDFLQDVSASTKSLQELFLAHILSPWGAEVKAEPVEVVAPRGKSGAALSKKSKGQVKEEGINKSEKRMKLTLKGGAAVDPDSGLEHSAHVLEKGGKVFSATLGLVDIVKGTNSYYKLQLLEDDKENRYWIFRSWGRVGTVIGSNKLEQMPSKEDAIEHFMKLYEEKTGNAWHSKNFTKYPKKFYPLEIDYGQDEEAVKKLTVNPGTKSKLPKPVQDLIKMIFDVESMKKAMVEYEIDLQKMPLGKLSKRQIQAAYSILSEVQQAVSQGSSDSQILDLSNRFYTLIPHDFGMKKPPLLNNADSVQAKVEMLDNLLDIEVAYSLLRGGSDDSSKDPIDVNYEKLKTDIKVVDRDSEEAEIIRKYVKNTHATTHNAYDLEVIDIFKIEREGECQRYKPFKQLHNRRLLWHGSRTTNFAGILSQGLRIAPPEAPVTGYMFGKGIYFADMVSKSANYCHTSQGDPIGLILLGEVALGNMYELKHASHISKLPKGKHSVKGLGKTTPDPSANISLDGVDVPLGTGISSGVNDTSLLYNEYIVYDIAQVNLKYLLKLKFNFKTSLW

Structure (SMILES)	pIC50 [1, 2]	also measured
O=C1NCN2c3ccccc3Sc3cccc1c32 [Example 1, 1,2-Dihydro-7-thia-2,11b-diaza-benzo[de]anthracen-3-one]	–	melting point: 187 to 192 °C
O=C1NCN2c3ccccc3Oc3cccc1c32 [Example 6, 1,2-Dihydro-7-oxa-2,11b-diaza-benzo[de]anthracen-3-one]	–	melting point: > 300 °C
CN(C)CCCN(C)CCC(=O)N1CCc2[nH]c(=O)c3ccccc3c2C1 [Compound 17a]	6.55	–
O=c1[nH]c2c(c3ccccc13)CCN(Cc1ccccc1)C2 [Compound 11]	6.66	–
O=C1NC(c2ccccc2)n2c3ccccc3c(=O)c3cccc1c32 (centres unmarked) [Example 9]	–	melting point: 288 to 292 °C
O=C1NCn2c3ccccc3c(=O)c3cccc1c32 [Example 8, 1,2-Dihydro-2,11b-diaza-benzo[de]anthracene-3,7-dione]	–	melting point: 250 to 255 °C
CN1CCN(CC(=O)N2CCc3[nH]c(=O)c4ccccc4c3C2)CC1 [Compound 16b]	5.78	–
O=C1NCN2c3ccc([N+](=O)[O-])cc3Sc3cccc1c32 [Example 5, 9-Nitro-1,2-dihydro-7-thia-2,11b-diaza-benzo[de]anthracen-3-one]	–	melting point: 205 to 208 °C
O=C(CCNC[C@H](O)CO)N1CCc2[nH]c(=O)c3ccccc3c2C1 [Compound 17h]	6.60	–
O=C(CN1CC=CCC1)N1CCc2[nH]c(=O)c3ccccc3c2C1 [Compound 16m]	6.67	–
CN1CCN(CCC(=O)N2CCc3[nH]c(=O)c4ccccc4c3C2)CC1 [Compound 17b]	5.74	–
O=C(CCCl)N1CCc2[nH]c(=O)c3ccccc3c2C1 [Compound 14a]	6.73	–
CN(C)CCN(C)CC(=O)N1CCc2[nH]c(=O)c3ccccc3c2C1 [Compound 16d]	6.01	–
O=c1[nH]c2c(c3ccc(F)cc13)CN(Cc1ccccc1)CC2 [Compound 6b]	6.74	–
O=C(CCN1CCCCC1)N1CCc2nc(O)c3ccccc3c2C1 [Compound 17i]	7.15	–
CCOC(=O)C1CCN(CCC(=O)N2CCc3[nH]c(=O)c4ccccc4c3C2)CC1 [Compound 17j]	6.25	–
O=C(CNC[C@H](O)CO)N1CCc2[nH]c(=O)c3ccccc3c2C1 [Compound 16i]	6.18	–
O=C1CCN(CC(=O)N2CCc3[nH]c(=O)c4ccccc4c3C2)CC1 [Compound 16l]	6.53	–

Structure (SMILES)	pIC50 [1, 2]	also measured
O=c1[nH]c2c(c3ccccc13)CN(Cc1ccccc1)CC2 [Compound 6a]	6.47	–
O=C(CN1CCc2ccccc2C1)N1CCc2[nH]c(=O)c3ccccc3c2C1 [Compound 16h]	5.80	–
CCOC(=O)C1CCN(CC(=O)N2CCc3[nH]c(=O)c4ccccc4c3C2)CC1 [Compound 16k]	6.87	–
O=C1NCN2c3ccc(S(=O)(=O)NCCN4CCOCC4)cc3Sc3cccc1c32 [Example 3, 3-Oxo-2,3-dihydro-1H-7-thia-2,11b-diaza-benzo[de]anthracene-9-(N2-morpholin-4-yl-ethyl)sulfonamide]	–	melting point: 227 to 228 °C
CC(O)CNCCC(=O)N1CCc2[nH]c(=O)c3ccccc3c2C1 (centres unmarked) [Compound 17c]	5.66	–
CN(C)CC(=O)N1CCc2[nH]c(=O)c3ccccc3c2C1 [Compound 16g]	6.19	–
CN(CCC(=O)N1CCc2[nH]c(=O)c3ccccc3c2C1)CC(=O)OC(C)(C)C [Compound 17d]	6.74	–
CC(O)CNCC(=O)N1CCc2[nH]c(=O)c3ccccc3c2C1 (centres unmarked) [Compound 16c]	6.38	–
O=C1CCN(CCC(=O)N2CCc3[nH]c(=O)c4ccccc4c3C2)CC1 [Compound 17k]	6.95	–
O=C(CCN1CCc2ccccc2C1)N1CCc2[nH]c(=O)c3ccccc3c2C1 [Compound 17g]	6.61	–
O=C(CCN1CCCCC1CO)N1CCc2[nH]c(=O)c3ccccc3c2C1 (centres unmarked) [Compound 17f]	6.36	–
O=C(CN1CCN(CCO)CC1)N1CCc2[nH]c(=O)c3ccccc3c2C1 [Compound 16f]	4.88	–
O=C(CCNCCc1ccccc1F)N1CCc2[nH]c(=O)c3ccccc3c2C1 [Compound 17m]	6.79	–
O=C1NCN2c3ccc(S(=O)(=O)NCCN4CCCCC4)cc3Sc3cccc1c32 [Example 4, 3-Oxo-2,3-dihydro-1H-7-thia-2,11b-diaza-benzo[de]anthracene-9-(N-2-piperidin-1-yl-ethyl)-sulfonamide]	–	melting point: 170 to 172 °C
CN(C)CCCN(C)CC(=O)N1CCc2[nH]c(=O)c3ccccc3c2C1 [Compound 16a]	6.37	–
O=C(CN1CCCCC1CO)N1CCc2[nH]c(=O)c3ccccc3c2C1 (centres unmarked) [Compound 16e]	6.07	–
CN(C)CCN(C)CCC(=O)N1CCc2[nH]c(=O)c3ccccc3c2C1 [Compound 17e]	6.41	–
O=c1[nH]c2c(c3ccccc13)CN(S(=O)(=O)CCN1CCC(N3CCCC3)CC1)CC2 [Compound 24a]	–	pIC50 [1]: 7.10

Second part, led by results:

pIC50 [1, 2]	Structure (SMILES)	also measured
7.44	O=C(O)c1cccc(S(=O)(=O)N2CCc3[nH]c(=O)c4ccccc4c3C2)c1 [Compound 22a]	–
6.34	O=C(CCCN1CCCCC1)N1CCc2[nH]c(=O)c3ccccc3c2C1 [Compound 18j]	–
6.16	CC(C)C(N)C(=O)N1CCc2[nH]c(=O)c3ccccc3c2C1 (centres unmarked) [Compound 21c]	–
5.88	O=C(CCCNCCc1ccccc1F)N1CCc2[nH]c(=O)c3ccccc3c2C1 [Compound 18n]	–
7.24	CC(=O)N1CCc2[nH]c(=O)c3ccccc3c2C1 [Compound 21n]	–
6.36	CN1CCN(C(=O)c2cccc(S(=O)(=O)N3CCc4[nH]c(=O)c5ccccc5c4C3)c2)CC1 [Compound 23a]	–
6.32	CCOC(=O)C1CCN(CCCC(=O)N2CCc3[nH]c(=O)c4ccccc4c3C2)CC1 [Compound 18k]	–
6.57	O=C(C1CCCN1)N1CCc2[nH]c(=O)c3ccccc3c2C1 (centres unmarked) [Compound 21d]	–
6.31	CN(CCCC(=O)N1CCc2[nH]c(=O)c3ccccc3c2C1)CC(=O)OC(C)(C)C [Compound 18d]	–
7.05	NCC(=O)N1CCc2[nH]c(=O)c3ccccc3c2C1 [Compound 21a]	–
7.21	NCCC(=O)N1CCc2[nH]c(=O)c3ccccc3c2C1 [Compound 21l]	–
5.43	N[C@H](Cc1ccc(O)cc1)C(=O)N1CCc2[nH]c(=O)c3ccccc3c2C1 [Compound 21k]	–
6.62	CN1CCN(CCCC(=O)N2CCc3[nH]c(=O)c4ccccc4c3C2)CC1 [Compound 18b]	–
6.60	C[C@H](CO)NCCCC(=O)N1CCc2[nH]c(=O)c3ccccc3c2C1 [Compound 18q]	–
6.73	CN(C)CCCN(C)CCCC(=O)N1CCc2[nH]c(=O)c3ccccc3c2C1 [Compound 18a]	–
6.82	CN(C)CCCC(=O)N1CCc2[nH]c(=O)c3ccccc3c2C1 [Compound 18h]	–

pIC50 [1, 2]	Structure (SMILES)	also measured
6.31	CN(C)CCN(C)CCCC(=O)N1CCc2[nH]c(=O)c3ccccc3c2C1 [Compound 18e]	–
6.17	O=C(CCCN1CCCCC1CO)N1CCc2[nH]c(=O)c3ccccc3c2C1 (centres unmarked) [Compound 18f]	–
6.10	O=C(c1cccc(CCl)c1)N1CCc2c([nH]c(=O)c3ccccc23)C1 [Compound 21p]	–
6.60	O=C1CCN(CCCC(=O)N2CCc3[nH]c(=O)c4ccccc4c3C2)CC1 [Compound 18l]	–
6.49	O=C(CCCNC[C@@H]1CCCO1)N1CCc2[nH]c(=O)c3ccccc3c2C1 [Compound 18o]	–
6.78	O=C(CCCNC[C@H]1CCCO1)N1CCc2[nH]c(=O)c3ccccc3c2C1 [Compound 18p]	–
5.91	NC(Cc1ccccc1)C(=O)N1CCc2[nH]c(=O)c3ccccc3c2C1 (centres unmarked) [Compound 21i]	–
6.32	O=C(CCCN1CCN(CCO)CC1)N1CCc2[nH]c(=O)c3ccccc3c2C1 [Compound 18g]	–
6.53	C=CS(=O)(=O)N1CCc2[nH]c(=O)c3ccccc3c2C1 [Compound 22c]	–
6.98	O=C(NCCN1CCCCC1)N1CCc2[nH]c(=O)c3ccccc3c2C1 [Compound 21o]	–
7.06	CC(O)CNCCCC(=O)N1CCc2[nH]c(=O)c3ccccc3c2C1 (centres unmarked) [Compound 18c]	–
6.52	O=C(c1cccc(S(=O)(=O)N2CCc3[nH]c(=O)c4ccccc4c3C2)c1)N1CCC(N2CCCC2)CC1 [Compound 23b]	–
6.42	NC(Cc1ccc(O)cc1)C(=O)N1CCc2[nH]c(=O)c3ccccc3c2C1 (centres unmarked) [Compound 21j]	–
6.45	O=C(CCCNCC(O)c1ccccc1)N1CCc2[nH]c(=O)c3ccccc3c2C1 (centres unmarked) [Compound 18r]	–
6.81	O=C(CCCNCC1(O)CCCCC1)N1CCc2[nH]c(=O)c3ccccc3c2C1 [Compound 18s]	–
6.39	O=C(CCCN1CC=CCC1)N1CCc2[nH]c(=O)c3ccccc3c2C1 [Compound 18m]	–
